PMC6742641, “Design, synthesis and biological evaluation of a series of CNS penetrant HDAC inhibitors structurally derived from amyloid-β probes” (Scientific Reports, 2019)
Like-named read-outs stand apart in the source and are kept apart here.

What was measured:
[1] = In vivo brain pharmacokinetic study; conditions: ICR male mice, IV, 2 mg/kg
Procedure: The study was approved by the Institutional Animal Care and Use of Committee of Daegu-Gyeongbuk Medical Innovation Foundation (DGMIF) and performed in accordance with protocols approved by the Institutional Animal Care and Use of Committee. […] Brain and plasma samples were collected at 0.5 and 1 h time points. Brain samples were homogenized at a 1:4 ratio of sample weight (g) to PBS volume (mL). Aliquots (20 μL) of brain homogenate were mixed with 180 μL of acetonitrile, vortexed and centrifuged at 15,000 rpm for 5 minutes at 4 °C. The resulting supernatants were used for LC-MS/MS analysis. Mice plasma samples were collected at 0.5 and 1 h time points. 180 μL of acetonitrile was added to 20 μL of plasma samples, vortexed and centrifuged at 15,000 rpm for 5 minutes at 4 °C.

[2] = target: T1, HDAC6 (Homo sapiens, UniProt Q9UBN7); test: HDAC activity assay (fluorimetric, BPS Biosciences); format: biochemical; conditions: class IIb in Table 4; mean ± SD (n = 2)
T1 construct: purchased BPS Biosciences
T1 sequence (Q9UBN7 1-1215): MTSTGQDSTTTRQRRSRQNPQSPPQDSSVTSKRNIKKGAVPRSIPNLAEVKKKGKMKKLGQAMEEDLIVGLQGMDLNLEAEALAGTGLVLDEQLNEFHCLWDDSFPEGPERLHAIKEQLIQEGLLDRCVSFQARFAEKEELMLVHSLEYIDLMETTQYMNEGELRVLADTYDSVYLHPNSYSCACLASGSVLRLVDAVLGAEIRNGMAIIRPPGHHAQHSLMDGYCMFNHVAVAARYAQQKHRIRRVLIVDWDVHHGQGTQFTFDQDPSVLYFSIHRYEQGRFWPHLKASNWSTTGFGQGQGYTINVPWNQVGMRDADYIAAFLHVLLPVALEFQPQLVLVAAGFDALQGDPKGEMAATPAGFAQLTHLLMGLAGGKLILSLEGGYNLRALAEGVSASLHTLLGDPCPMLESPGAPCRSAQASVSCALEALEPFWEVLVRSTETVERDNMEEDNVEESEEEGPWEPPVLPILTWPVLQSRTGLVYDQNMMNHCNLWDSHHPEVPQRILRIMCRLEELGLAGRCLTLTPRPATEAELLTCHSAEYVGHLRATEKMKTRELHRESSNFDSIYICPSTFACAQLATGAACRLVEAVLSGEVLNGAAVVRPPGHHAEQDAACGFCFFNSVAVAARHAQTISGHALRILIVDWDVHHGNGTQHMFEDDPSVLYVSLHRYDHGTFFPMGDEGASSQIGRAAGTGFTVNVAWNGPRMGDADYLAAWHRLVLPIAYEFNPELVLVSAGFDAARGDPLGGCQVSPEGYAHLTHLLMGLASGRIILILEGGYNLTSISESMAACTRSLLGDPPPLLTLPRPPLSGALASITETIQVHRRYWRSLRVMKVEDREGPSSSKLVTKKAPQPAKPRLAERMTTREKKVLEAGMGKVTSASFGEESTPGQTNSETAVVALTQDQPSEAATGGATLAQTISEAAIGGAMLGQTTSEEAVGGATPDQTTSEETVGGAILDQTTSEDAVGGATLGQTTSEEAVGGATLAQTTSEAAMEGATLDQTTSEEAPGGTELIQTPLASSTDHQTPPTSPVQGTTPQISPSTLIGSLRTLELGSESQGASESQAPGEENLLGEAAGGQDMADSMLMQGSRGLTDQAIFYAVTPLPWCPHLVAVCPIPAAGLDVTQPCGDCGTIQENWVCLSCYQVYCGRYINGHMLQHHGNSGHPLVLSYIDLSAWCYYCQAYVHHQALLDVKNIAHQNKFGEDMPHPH
Procedure: HDAC1, 3, 6 and 7 activity assays were performed according to the manufacturer’s protocol (BPS Biosciences). […] The HDAC assay developer was added to the mixture and incubated the plate at rt for 15 min. The fluorescence intensity was measured using a Tecan Infinite F200 Pro plate reader.

Q: Which “Brain concentration (ng/mL) 0.5 h” value ([1]; 0.5 h, n = 4) does the source give for `O=C(NO)c1ccc(-c2nc3ccccc3s2)cc1` [Compound 9b] here?
A: 414.6 ± 88.7 ng/mL

Q: And the “Brain concentration (ng/mL) 1 h” value ([1]; 1 h, n = 4)?
A: 52.9 ± 1.6 ng/mL

Q: What about the Kp at 0.5 h ([1]; mouse, brain/plasma, 0.5 h, read-out: Brain/plasma ratio 0.5 h) of the same molecule?
A: 9

Q: What about the Kp at 1 h ([1]; mouse, brain/plasma, 1 h, read-out: Brain/plasma ratio 1 h) of the same molecule?
A: 7.2

Q: And the concentration at 0.5 h ([1]; mouse, brain, 0.5 h, n = 4, read-out: Brain concentration (ng/mL) 0.5 h)?
A: 415 ng/mL

Q: And the concentration at 1 h ([1]; mouse, brain, 1 h, n = 4, read-out: Brain concentration (ng/mL) 1 h)?
A: 52.9 ng/mL

Q: What about the concentration at 0.5 h ([1]; mouse, plasma, 0.5 h, n = 4, read-out: Plasma concentration (ng/mL) 0.5 h) of the same molecule?
A: 46 ± 13.9 ng/mL

Q: And the concentration at 1 h ([1]; mouse, plasma, 1 h, n = 4, read-out: Plasma concentration (ng/mL) 1 h)?
A: 7.3 ± 1 ng/mL

Q: What about the IC50 [2] of the same molecule?
A: 0.0959 ± 0.00078 µM
